± gives the uncertainty stated by the source.
Assay: xn = mol fraction of the nth substance listed

CCNc1ccccc1 + CC(C)CO
viscosity [mPa·s], 101 kPa
Settings	303.15 K	308.15 K
x1 = 0.0756	2.789 ± 0.026	2.414 ± 0.024
x1 = 0.1356	2.742 ± 0.026	2.38 ± 0.023
x1 = 0.1958	2.695 ± 0.025	2.348 ± 0.023
x1 = 0.2654	2.637 ± 0.024	2.307 ± 0.022
x1 = 0.3214	2.588 ± 0.024	2.27 ± 0.022
x1 = 0.3956	2.517 ± 0.023	2.215 ± 0.021
x1 = 0.4565	2.454 ± 0.022	2.16 ± 0.021
x1 = 0.5202	2.384 ± 0.022	2.106 ± 0.02
x1 = 0.6021	2.284 ± 0.02	2.029 ± 0.019
x1 = 0.6745	2.194 ± 0.019	1.956 ± 0.018
x1 = 0.7325	2.116 ± 0.019	1.889 ± 0.017
x1 = 0.8025	2.019 ± 0.018	1.811 ± 0.017
x1 = 0.8869	1.903 ± 0.017	1.714 ± 0.016

CCC(=O)[O-].CC[NH+]1CCNCC1 + CCO
Settings	viscosity [mPa·s]
298.15 K, 101 kPa, x2 = 0.3033	75.85 ± 1.4

C[C@H]1COc2c(N3CCN(C)CC3)c(F)cc3c(=O)c(C(=O)O)cn1c23 + O
viscosity [mPa·s], 100 kPa
Settings	293.15 K	298.15 K	303.15 K	308.15 K	313.15 K
x1 = 0.00015	1.009 ± 0.035	0.8934 ± 0.035	0.8026 ± 0.035	0.7256 ± 0.035	0.6575 ± 0.034
x1 = 0.000344	1.016 ± 0.035	0.889 ± 0.035	0.8085 ± 0.035	0.7296 ± 0.035	0.6617 ± 0.034
x1 = 0.000425	1.019 ± 0.035	0.9064 ± 0.035	0.8134 ± 0.035	0.7336 ± 0.035	0.6673 ± 0.034

ClCCl + CCCO
Settings	viscosity [mPa·s]
298.15 K, 101 kPa, x2 = 0.05	0.48 ± 0.006
298.15 K, 101 kPa, x2 = 0.1	0.535 ± 0.007
298.15 K, 101 kPa, x2 = 0.1002	0.44 ± 0.011
298.15 K, 101 kPa, x2 = 0.15	0.588 ± 0.007
298.15 K, 101 kPa, x2 = 0.1991	0.487 ± 0.011
298.15 K, 101 kPa, x2 = 0.2	0.639 ± 0.007
298.15 K, 101 kPa, x2 = 0.2496	0.496 ± 0.011
298.15 K, 101 kPa, x2 = 0.25	0.689 ± 0.007
298.15 K, 101 kPa, x2 = 0.2978	0.528 ± 0.011
298.15 K, 101 kPa, x2 = 0.3	0.74 ± 0.008
298.15 K, 101 kPa, x2 = 0.35	0.792 ± 0.008
298.15 K, 101 kPa, x2 = 0.3938	0.6 ± 0.011
298.15 K, 101 kPa, x2 = 0.4	0.846 ± 0.008
298.15 K, 101 kPa, x2 = 0.45	0.904 ± 0.009
298.15 K, 101 kPa, x2 = 0.4603	0.668 ± 0.011
298.15 K, 101 kPa, x2 = 0.498	0.716 ± 0.011
298.15 K, 101 kPa, x2 = 0.5	0.966 ± 0.009
298.15 K, 101 kPa, x2 = 0.55	1.032 ± 0.009
298.15 K, 101 kPa, x2 = 0.589	0.843 ± 0.012
298.15 K, 101 kPa, x2 = 0.6	1.104 ± 0.01
298.15 K, 101 kPa, x2 = 0.65	1.182 ± 0.01
298.15 K, 101 kPa, x2 = 0.6943	1.043 ± 0.013
298.15 K, 101 kPa, x2 = 0.7	1.266 ± 0.011
298.15 K, 101 kPa, x2 = 0.75	1.357 ± 0.011
298.15 K, 101 kPa, x2 = 0.7977	1.289 ± 0.014
298.15 K, 101 kPa, x2 = 0.8	1.455 ± 0.012
298.15 K, 101 kPa, x2 = 0.85	1.56 ± 0.013
298.15 K, 101 kPa, x2 = 0.8955	1.57 ± 0.015
298.15 K, 101 kPa, x2 = 0.9	1.673 ± 0.013
298.15 K, 101 kPa, x2 = 0.95	1.794 ± 0.014
303.15 K, 101.3 kPa, x2 = 0.0434	0.401 ± 0.011
303.15 K, 101.3 kPa, x2 = 0.0863	0.4085 ± 0.011
303.15 K, 101.3 kPa, x2 = 0.1371	0.423 ± 0.011
303.15 K, 101.3 kPa, x2 = 0.1943	0.445 ± 0.012
303.15 K, 101.3 kPa, x2 = 0.2863	0.4936 ± 0.013
303.15 K, 101.3 kPa, x2 = 0.3859	0.5655 ± 0.015
303.15 K, 101.3 kPa, x2 = 0.4983	0.6748 ± 0.018
303.15 K, 101.3 kPa, x2 = 0.5806	0.7794 ± 0.021
303.15 K, 101.3 kPa, x2 = 0.7402	1.059 ± 0.028
303.15 K, 101.3 kPa, x2 = 0.828	1.257 ± 0.033
303.15 K, 101.3 kPa, x2 = 0.9016	1.447 ± 0.038
303.15 K, 101.3 kPa, x2 = 0.9307	1.606 ± 0.042
303.15 K, 101.3 kPa, x2 = 0.9459	1.57 ± 0.041
303.15 K, 101.3 kPa, x2 = 0.95	1.643 ± 0.043

ClCCl + CCCCCO
298.15 K, 101 kPa
Settings	viscosity [mPa·s]
x2 = 0.0966	0.7741 ± 0.04
x2 = 0.194	1.097 ± 0.054
x2 = 0.2921	1.391 ± 0.067
x2 = 0.3909	1.669 ± 0.079
x2 = 0.4905	1.93 ± 0.09
x2 = 0.5908	2.182 ± 0.1
x2 = 0.6919	2.437 ± 0.11
x2 = 0.7938	2.688 ± 0.12
x2 = 0.8965	2.927 ± 0.13

ClCCCl + c1ccccc1
101 kPa
Settings	viscosity [mPa·s]
293.15 K, x2 = 0.09	0.7903 ± 0.021
293.15 K, x2 = 0.2	0.7512 ± 0.02
293.15 K, x2 = 0.3	0.7172 ± 0.019
293.15 K, x2 = 0.392	0.6824 ± 0.018
293.15 K, x2 = 0.525	0.6583 ± 0.017
293.15 K, x2 = 0.577	0.6545 ± 0.017
293.15 K, x2 = 0.683	0.634 ± 0.017
293.15 K, x2 = 0.81	0.636 ± 0.017
293.15 K, x2 = 0.9	0.6404 ± 0.017
298.15 K, x2 = 0.2	0.686 ± 0.0077
298.15 K, x2 = 0.4	0.634 ± 0.0067
298.15 K, x2 = 0.6	0.601 ± 0.0061
298.15 K, x2 = 0.8	0.59 ± 0.0059
313.15 K, x2 = 0.09	0.6098 ± 0.016
313.15 K, x2 = 0.2	0.5936 ± 0.016
313.15 K, x2 = 0.525	0.5387 ± 0.014
313.15 K, x2 = 0.81	0.508 ± 0.013

From the CheMixHub viscosity set
